The test system of this data set is pulmonary colonies of B16 melanoma. As to the kind of experiment: Autoradiograms, pulmonary metastasing colonies after i.v. B16 cells. The data set is classed as in vivo, mouse. The settings on record: 1 to 7 hours after injection. The procedure:
The autoradiograms are carried out in mice bearing grafted melanomas:
The animals bearing grafted tumors receive the labelled compounds in the form of the hydrochloride in saline solution (3.7 to 5×10^5 Bq/animal) in a caudal vein. At different time intervals after the administration of the compounds (from 15 minutes to 24 hours) the mice are anesthetized with ether and plunged into liquid nitrogen.
30 μm sections, parallel to a sagittal plane, are prepared in a freezing microtome (TS 260, SLEE) according to the protocol described by Ullberg. The sections, dehydrated in the cold, are applied to sensitive films, Ultrofim ^3 H (LKB, 2208-190) or Hyperfilm ^3 H (Amersham, RPN 535).
After the i.v. injection of B16 melanoma cells the appearance of predominantly pulmonary metastasing colonies is noticed.

For the molecule `CCNCCNC(=O)c1ccc(I)cc1` [Derivative B, N-(2-ethylaminoethyl) 4-iodo benzamide], the “visualization of pulmonary colonies” value is reported as “readily visualized”.

The values above are taken from patent publication US5190741A, “Agents for diagnosing and treating melanomas, aromatic halogenated derivatives usable as such agents and their preparation” (Institut National de la Sante et de la Recherche Medicale …, priority 1989, dated 1993).
